From ChEMBL document CHEMBL1201862, “PubChem BioAssay data set” (2004)
Where “and” joins values, the source holds several entries; their conditions need not be identical. Equal entries are not always repeated.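 The compound was tested at five concentrations on cells cultured in 96-well plates, with a 48-hour exposure period. GI50 is the concentration that inhibits growth by half.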 Calls of active or inactive are those of the source. Rule as the data show it: active = GI50 up to about 1.1 µM and inactive = higher.

Key:
Assay in all cases: inhibition of tumour cell growth, NCI panel, 48 h
786-0 = test system: 786-0
A498 = test system: A498
A549 = test system: A549
ACHN = test system: ACHN
BT-549 = test system: BT-549
CAKI-1 = test system: CAKI-1
CCRF-CEM = test system: CCRF-CEM
COLO 205 = test system: COLO 205
DU-145 = test system: DU-145
EKVX = test system: EKVX
HCC 2998 = test system: HCC 2998
HCT-116 = test system: HCT-116
HCT-15 = test system: HCT-15
HL-60 = test system: HL-60
HOP-92 = test system: HOP-92
HT-29 = test system: HT-29
Hs-578T = test system: Hs-578T
IGROV-1 = test system: IGROV-1
K562 = test system: K562
KM12 = test system: KM12
LOX IMVI = test system: LOX IMVI
M14 = test system: M14
MCF7 = test system: MCF7
MDA-MB-231 = test system: MDA-MB-231
MDA-MB-435 = test system: MDA-MB-435
MDA-N = test system: MDA-N
MOLT-4 = test system: MOLT-4
Malme-3M = test system: Malme-3M
NCI-H226 = test system: NCI-H226
NCI-H23 = test system: NCI-H23
NCI-H522 = test system: NCI-H522
NCI/ADR-RES = test system: NCI/ADR-RES
OVCAR-3 = test system: OVCAR-3
OVCAR-4 = test system: OVCAR-4
OVCAR-5 = test system: OVCAR-5
OVCAR-8 = test system: OVCAR-8
PC-3 = test system: PC-3
RPMI-8226 = test system: RPMI-8226
SF-268 = test system: SF-268
SF-295 = test system: SF-295
SK-MEL-28 = test system: SK-MEL-28
SK-MEL-2 = test system: SK-MEL-2
SK-MEL-5 = test system: SK-MEL-5
SK-OV-3 = test system: SK-OV-3
SN12C = test system: SN12C
SNB-19 = test system: SNB-19
SR = test system: SR
SW-620 = test system: SW-620
T47D = test system: T47D
TK-10 = test system: TK-10
U-251 = test system: U-251
UACC-257 = test system: UACC-257
UACC-62 = test system: UACC-62
UO-31 = test system: UO-31

Structure (SMILES): COC(=O)C1OC(O[C@H]2CC[C@]3(C)[C@H]4CC=C5[C@@H]6CC(C)(C)CC[C@]6(C(=O)OC6OCC(O)C(O)C6OC6OC(C)C(OC7OCC(O)C(OC8OCC(O)C(O)C8O)C7O)C(OC7OCC(O)C(O)C7O)C6O)CC[C@@]5(C)[C@]4(C)CC[C@H]3C2(C)C)C(O)C(OC2OCC(O)C(O)C2O)C1O (some centres undefined)
- GI50 (786-0): 5.01 µM (inactive) and 7.71 µM (inactive)
- GI50 (A498): 1.94 µM (inactive) and 1.66 µM (inactive)
- GI50 (A549): 3.17 µM (inactive) and 3.16 µM (inactive)
- GI50 (ACHN): 4.84 µM (inactive) and 4.03 µM (inactive)
- GI50 (BT-549): 3.01 µM (inactive) and 2.62 µM (inactive)
- GI50 (CAKI-1): 5.24 µM (inactive) and 4.84 µM (inactive)
- GI50 (CCRF-CEM): 11.3 µM (inactive) and 10.6 µM (inactive)
- GI50 (COLO 205): 1.6 µM (inactive) and 1.52 µM (inactive)
- GI50 (DU-145): 5.79 µM (inactive) and 9.29 µM (inactive)
- GI50 (EKVX): 3.74 µM (inactive) and 3.72 µM (inactive)
- GI50 (HCC 2998): 1.78 µM (inactive) and 1.67 µM (inactive)
- GI50 (HCT-116): 4.04 µM (inactive) and 4.85 µM (inactive)
- GI50 (HCT-15): 14.1 µM and 27.4 µM
- GI50 (HL-60): 2.28 µM (inactive) and 1.97 µM (inactive)
- GI50 (HOP-92): 2.19 µM (inactive) and 2.25 µM (inactive)
- GI50 (HT-29): 3.1 µM (inactive) and 2.9 µM (inactive)
- GI50 (Hs-578T): 16.1 µM (inactive) and 19.7 µM (inactive)
- GI50 (IGROV-1): 7.41 µM (inactive) and 9.25 µM (inactive)
- GI50 (K562): 4.94 µM (inactive) and 3.94 µM (inactive)
- GI50 (KM12): 3.1 µM (inactive) and 3.08 µM (inactive)
- GI50 (LOX IMVI): 7.85 µM (inactive) and 5.43 µM (inactive)
- GI50 (M14): 1.95 µM (inactive) and 2.25 µM (inactive)
- GI50 (MCF7): 4.71 µM (inactive) and 3.27 µM (inactive)
- GI50 (MDA-MB-231): 2.73 µM (inactive) and 3.51 µM (inactive)
- GI50 (MDA-MB-435): 2.13 µM (inactive) and 2.14 µM (inactive)
- GI50 (MDA-N): 2.02 µM (inactive) and 1.79 µM (inactive)
- GI50 (MOLT-4): 8.24 µM (inactive) and 4.91 µM (inactive)
- GI50 (Malme-3M): 3.61 µM (inactive) and 5.04 µM (inactive)
- GI50 (NCI-H226): 2.9 µM (inactive) and 4.98 µM (inactive)
- GI50 (NCI-H23): 4.52 µM (inactive) and 3.81 µM (inactive)
- GI50 (NCI-H522): 1.95 µM (inactive) and 1.77 µM (inactive)
- GI50 (NCI/ADR-RES): 5.11 µM (inactive) and 4.45 µM (inactive)
- GI50 (OVCAR-3): 9.25 µM (inactive) and 7.82 µM (inactive)
- GI50 (OVCAR-4): 6.61 µM (inactive) and 5.24 µM (inactive)
- GI50 (OVCAR-5): 5.31 µM (inactive) and 4.75 µM (inactive)
- GI50 (OVCAR-8): 13.2 µM (inactive) and 10.4 µM (inactive)
- GI50 (PC-3): 4.46 µM (inactive) and 4.32 µM (inactive)
- GI50 (RPMI-8226): 2.62 µM (inactive) and 4.37 µM (inactive)
- GI50 (SF-268): 6.53 µM (inactive) and 8.45 µM (inactive)
- GI50 (SF-295): 5.19 µM (inactive) and 3.39 µM (inactive)
- GI50 (SK-MEL-28): 2.37 µM (inactive) and 2.07 µM (inactive)
- GI50 (SK-MEL-2): 2.22 µM (inactive) and 2.93 µM (inactive)
- GI50 (SK-MEL-5): 3.8 µM (inactive) and 2.52 µM (inactive)
- GI50 (SK-OV-3): 12.8 µM (inactive) and 16.6 µM (inactive)
- GI50 (SN12C): 2.25 µM (inactive) and 2.31 µM (inactive)
- GI50 (SNB-19): 7.01 µM (inactive) and 6.22 µM (inactive)
- GI50 (SR): 1.75 µM (inactive) and 2.72 µM (inactive)
- GI50 (SW-620): 9.2 µM (inactive) and 8.04 µM (inactive)
- GI50 (T47D): 3.45 µM (inactive) and 3.29 µM (inactive)
- GI50 (TK-10): 7.35 µM (inactive) and 11.9 µM (inactive)
- GI50 (U-251): 7.41 µM (inactive) and 6.87 µM (inactive)
- GI50 (UACC-257): 3.17 µM (inactive) and 2.91 µM (inactive)
- GI50 (UACC-62): 3.08 µM (inactive) and 3.77 µM (inactive)
- GI50 (UO-31): 2.01 µM (inactive) and 1.9 µM (inactive)
